Structures are written as SMILES.

In BindingDB's records for doi:10.1016/j.bmcl.2007.06.023 (Merck Frosst Centre For Therapeutic Research, 2007) one finds IC50 data, which are given here for 7 molecules.

Common to all, as to assay: Enzyme Inhibition Assay
Assay [1] addresses T1, Cathepsin K (Oryctolagus cuniculus, UniProt P43236).
T1 sequence (P43236 whole entry): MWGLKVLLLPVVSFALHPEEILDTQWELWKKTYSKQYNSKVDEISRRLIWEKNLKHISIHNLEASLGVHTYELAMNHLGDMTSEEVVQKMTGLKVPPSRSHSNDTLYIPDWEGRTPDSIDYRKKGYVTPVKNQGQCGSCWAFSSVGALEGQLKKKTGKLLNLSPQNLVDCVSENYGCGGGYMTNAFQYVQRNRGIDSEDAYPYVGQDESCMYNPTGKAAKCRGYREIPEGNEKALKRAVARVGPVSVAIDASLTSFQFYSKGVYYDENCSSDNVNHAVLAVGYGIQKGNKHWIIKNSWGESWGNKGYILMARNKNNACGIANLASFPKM
As to the method: (§1) Prior to the addition of substrate, different concentrations of the inhibitor ranging from 100 uM to 0.2 nM were preincubated for 15 min with enzyme to allow the establishment of the enzyme-inhibitor complex. The proteolytic cleavage of N-acyl aminocoumarins by cathepsins was conducted in 96-well plate format and the plate read using a Spectramax (Molecular Devices) plate reader. The excitation wavelength was 355 nm and the emission wavelength was 460 nm for peptidyl-AMC substrates. The percent inhibition of the reaction was calculated from a control reaction containing only vehicle. IC50 curves were generated by fitting percent inhibition values to a four parameter logistic model (SOFTMAX PRO, Molecular Devices).

Assay [2] deals with Procathepsin L (Homo sapiens, UniProt P07711). As to the method:
as §1

The target in assay [3] is Cathepsin S (Homo sapiens, UniProt P25774). Particulars: pH 6.5; 22 °C. The method, then:
as §1

Sequence of Cathepsin S (P25774 whole entry): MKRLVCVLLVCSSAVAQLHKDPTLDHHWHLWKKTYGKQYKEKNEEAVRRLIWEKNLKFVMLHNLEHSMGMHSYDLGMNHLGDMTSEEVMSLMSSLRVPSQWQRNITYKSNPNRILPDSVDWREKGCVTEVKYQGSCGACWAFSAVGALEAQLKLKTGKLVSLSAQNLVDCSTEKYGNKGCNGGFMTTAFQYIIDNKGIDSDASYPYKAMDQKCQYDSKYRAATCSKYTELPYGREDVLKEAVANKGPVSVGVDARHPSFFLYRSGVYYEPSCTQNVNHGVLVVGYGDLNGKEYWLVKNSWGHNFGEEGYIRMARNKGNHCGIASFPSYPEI
Sequence of Procathepsin L (P07711 whole entry): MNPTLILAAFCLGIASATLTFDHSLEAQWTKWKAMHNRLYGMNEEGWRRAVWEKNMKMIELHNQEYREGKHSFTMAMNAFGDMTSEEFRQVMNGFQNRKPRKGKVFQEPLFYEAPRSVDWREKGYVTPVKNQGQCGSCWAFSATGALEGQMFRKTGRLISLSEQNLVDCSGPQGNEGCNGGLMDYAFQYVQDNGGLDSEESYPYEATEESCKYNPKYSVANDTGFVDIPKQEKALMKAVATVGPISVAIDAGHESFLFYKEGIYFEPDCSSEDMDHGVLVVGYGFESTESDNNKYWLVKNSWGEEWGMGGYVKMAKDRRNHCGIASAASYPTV

The term IC50 denotes the concentration at which inhibition is half-maximal. For `N#CC1(NC(=O)[C@H](CS(=O)(=O)Cc2cccc(F)c2F)N[C@@H](c2ccc(F)cc2)C(F)(F)F)CC1` [(2R)-N-(1-cyanocyclopropyl)-3-{[(2,3-difluorophenyl)methane]sulfonyl}-2-{[(1S)-2,2,2-trifluoro-1-(4-fluorophenyl)ethyl]amino}propanamide], the 50% inhibitory concentration (IC50) in assay [1] was > 10 µM.
Turning to `N#CC1(NC(=O)[C@H](CS(=O)(=O)Cc2c(Cl)cccc2Cl)N[C@@H](c2ccc(F)cc2)C(F)(F)F)CC1` [(2R)-N-(1-cyanocyclopropyl)-3-{[(2,6-dichlorophenyl)methane]sulfonyl}-2-{[(1S)-2,2,2-trifluoro-1-(4-fluorophenyl)ethyl]amino}propanamide], the IC50 in assay [2] was 0.249 µM; in assay [1], > 10 µM; in assay [3], 0.0007 µM.
With `CC(C)C[C@@H](NC(=O)N1CCOCC1)C(=O)N[C@@H](C=CS(=O)(=O)c1ccccc1)CCc1ccccc1`, the IC50 in assay [1] worked out at 0.0062 µM; in assay [3] it was 0.0012 µM.
On to `N#CC1(NC(=O)[C@H](CS(=O)(=O)Cc2ccc(F)cc2)N[C@@H](c2ccccc2)C(F)(F)F)CC1` [(2R)-N-(1-cyanocyclopropyl)-3-{[(4-fluorophenyl)methane]sulfonyl}-2-{[(1S)-2,2,2-trifluoro-1-phenylethyl]amino}propanamide], for which the IC50 in assay [1] was > 10 µM.
Consider `N#CC1(NC(=O)[C@H](CS(=O)(=O)Cc2cccc(F)c2F)N[C@@H](c2ccccc2)C(F)(F)F)CC1` [(2R)-N-(1-cyanocyclopropyl)-3-{[(2,3-difluorophenyl)methane]sulfonyl}-2-{[(1S)-2,2,2-trifluoro-1-phenylethyl]amino}propanamide], for which the IC50 in assay [1] was > 10 µM.
Same read-out and setting: with `N#CC1(NC(=O)[C@H](CS(=O)(=O)Cc2ccccc2-c2ccccc2)N[C@@H](c2ccc(F)cc2)C(F)(F)F)CC1` [(2R)-N-(1-cyanocyclopropyl)-3-{[(2-phenylphenyl)methane]sulfonyl}-2-{[(1S)-2,2,2-trifluoro-1-(4-fluorophenyl)ethyl]amino}propanamide] the figure was > 10 µM; with `CC(C)(c1ccc(F)cc1)S(=O)(=O)C[C@H](N[C@@H](c1ccc(F)cc1)C(F)(F)F)C(=O)NC1(C#N)CC1` [(2R)-N-(1-cyanocyclopropyl)-3-{[2-(4-fluorophenyl)propane-2-]sulfonyl}-2-{[(1S)-2,2,2-trifluoro-1-(4-fluorophenyl)ethyl]amino}propanamide], > 10 µM.
